# Legend:
# [1] = system: Salmonella (S. typhimurium, S. enteritidis, S. heidelberg); assay: Effectiveness of mixes against Salmonella in soybean meal with 8% DBM; type: cell-based; conditions: 25° C. - 8% DBM; for Average (n = 3): Salmonella count; for LOG10 (CFU/g): Salmonella
# Method: (§1) In order to assess the effectiveness of the mix of the invention in the matrix of interest, an appropriate working protocol was prepared. Initially, 500 g of soybean meal were infected with 50 mL of Salmonella solution whose composition was: 10^6 CFUS. typhimurium/mL, 10^6 CFUS. enteritidis /mLand 10^6 CFUS. heidelberg /mL in equal amounts. […] 50 g of the wet meal obtained (≈25% moisture content on dry basis) were mixed within the dry meal (≈10% moisture content dry basis) and were stirred for 10 minutes. […] Daily determinations of Salmonella colony forming units were performed on this contaminated meal. To this end, 40.5 g of BPW to 4.5 g of the resulting meal were added and vigorously stirred, and then 100μL of this solution, were plated onto Salmonella-Shigella agar (SS Agar). When microorganisms were used in the protecting mixes, concentrations were carefully balanced, and the amount of bacteria added was always the same.
# (§2) In the cases in which solutions with ferments were used for protection purposes, cell concentration was of about 10^8 CFU/mL.
# After oil is stripped from the soybean flakes during the extraction process, the latter goes through a desolventizer to evaporate the residual hexane remaining after extraction. This process adds moisture to the flakes, since desolventizing is a process that uses steam. Once the soybean flake is desolventized, it is dried to obtain the desired moisture level. The moisture content assessed on a dry basis of a typical meal product is around 11-12% DBM; however, at present we can find meals on the market with a moisture content ranging from 8-13% DBM. The effectiveness of the mix of the invention was tested in meals with different moisture contents.
# [2] = system: Salmonella (S. typhimurium, S. enteritidis, S. heidelberg); assay: Effectiveness of mixes against Salmonella in soybean meal at different temperatures; type: cell-based; conditions: for Average (n = 3): Salmonella count; for LOG10 (CFU/g): Salmonella
# Method: as §1, §2
# The following tests were carried out to assess the effectiveness of different mixes under different conditions. To assess extreme temperatures, meal products were stored at 5, 25, and 32° C., after contamination and protection, respectively. Samples were taken every 24 hours and triplicate determinations of Salmonella, lactic and propionic bacteria were made.
structure (smiles),measurement,setting,value
CCC(=O)O [Propionic Acid],Average (n = 3),[1]; 0 hours,199.67
same,Average (n = 3),[1]; 12 hours,175
same,Average (n = 3),[1]; 24 hours,130
same,Average (n = 3),[1]; 36 hours,100.33
same,Average (n = 3),[1]; 48 hours,90.67
same,Average (n = 3),[1]; 60 hours,77
same,Average (n = 3),[1]; 72 hours,58
same,Average (n = 3),[1]; 84 hours,32.33
same,Average (n = 3),[1]; 96 hours,15
same,LOG10 (CFU/g),[1]; 0 hours,3.65 LOG10 (CFU/g)
same,LOG10 (CFU/g),[1]; 12 hours,3.59 LOG10 (CFU/g)
same,LOG10 (CFU/g),[1]; 24 hours,3.46 LOG10 (CFU/g)
same,LOG10 (CFU/g),[1]; 36 hours,3.35 LOG10 (CFU/g)
same,LOG10 (CFU/g),[1]; 48 hours,3.30 LOG10 (CFU/g)
same,LOG10 (CFU/g),[1]; 60 hours,3.23 LOG10 (CFU/g)
same,LOG10 (CFU/g),[1]; 72 hours,3.11 LOG10 (CFU/g)
same,LOG10 (CFU/g),[1]; 84 hours,2.85 LOG10 (CFU/g)
same,LOG10 (CFU/g),[1]; 96 hours,2.52 LOG10 (CFU/g)
same,Average (n = 3),"[2]; 5° C. - 12% DBM, 0 days",199.76
same,Average (n = 3),"[2]; 5° C. - 12% DBM, 1 day",165
same,Average (n = 3),"[2]; 5° C. - 12% DBM, 2 days",131.3
same,Average (n = 3),"[2]; 5° C. - 12% DBM, 3 days",90.67
same,Average (n = 3),"[2]; 5° C. - 12% DBM, 4 days",61
same,Average (n = 3),"[2]; 5° C. - 12% DBM, 5 days",57
same,Average (n = 3),"[2]; 5° C. - 12% DBM, 6 days",38
same,Average (n = 3),"[2]; 25° C. - 12% DBM, 0 days",199.67
same,Average (n = 3),"[2]; 25° C. - 12% DBM, 1 day",145.33
same,Average (n = 3),"[2]; 25° C. - 12% DBM, 2 days",110
same,Average (n = 3),"[2]; 25° C. - 12% DBM, 3 days",90
same,Average (n = 3),"[2]; 25° C. - 12% DBM, 4 days",60.67
same,Average (n = 3),"[2]; 25° C. - 12% DBM, 5 days",57
same,Average (n = 3),"[2]; 25° C. - 12% DBM, 6 days",38
same,Average (n = 3),"[2]; 32° C. - 12% DBM, 0 days",199.67
same,Average (n = 3),"[2]; 32° C. - 12% DBM, 1 day",175
same,Average (n = 3),"[2]; 32° C. - 12% DBM, 2 days",130
same,Average (n = 3),"[2]; 32° C. - 12% DBM, 3 days",100.33
same,Average (n = 3),"[2]; 32° C. - 12% DBM, 4 days",90.67
same,Average (n = 3),"[2]; 32° C. - 12% DBM, 5 days",77
same,Average (n = 3),"[2]; 32° C. - 12% DBM, 6 days",58
same,LOG10 (CFU/g),"[2]; 5° C. - 12% DBM, 0 days",3.65 LOG10 (CFU/g)
same,LOG10 (CFU/g),"[2]; 5° C. - 12% DBM, 1 day",3.56 LOG10 (CFU/g)
same,LOG10 (CFU/g),"[2]; 5° C. - 12% DBM, 2 days",3.47 LOG10 (CFU/g)
same,LOG10 (CFU/g),"[2]; 5° C. - 12% DBM, 3 days",3.30 LOG10 (CFU/g)
same,LOG10 (CFU/g),"[2]; 5° C. - 12% DBM, 4 days",3.13 LOG10 (CFU/g)
same,LOG10 (CFU/g),"[2]; 5° C. - 12% DBM, 5 days",3.10 LOG10 (CFU/g)
same,LOG10 (CFU/g),"[2]; 5° C. - 12% DBM, 6 days",2.93 LOG10 (CFU/g)
same,LOG10 (CFU/g),"[2]; 25° C. - 12% DBM, 0 days",3.65 LOG10 (CFU/g)
same,LOG10 (CFU/g),"[2]; 25° C. - 12% DBM, 1 day",3.51 LOG10 (CFU/g)
same,LOG10 (CFU/g),"[2]; 25° C. - 12% DBM, 2 days",3.39 LOG10 (CFU/g)
same,LOG10 (CFU/g),"[2]; 25° C. - 12% DBM, 3 days",3.30 LOG10 (CFU/g)
same,LOG10 (CFU/g),"[2]; 25° C. - 12% DBM, 4 days",3.13 LOG10 (CFU/g)
same,LOG10 (CFU/g),"[2]; 25° C. - 12% DBM, 5 days",3.10 LOG10 (CFU/g)
same,LOG10 (CFU/g),"[2]; 25° C. - 12% DBM, 6 days",2.93 LOG10 (CFU/g)
same,LOG10 (CFU/g),"[2]; 32° C. - 12% DBM, 0 days",3.65 LOG10 (CFU/g)
same,LOG10 (CFU/g),"[2]; 32° C. - 12% DBM, 1 day",3.59 LOG10 (CFU/g)
same,LOG10 (CFU/g),"[2]; 32° C. - 12% DBM, 2 days",3.46 LOG10 (CFU/g)
same,LOG10 (CFU/g),"[2]; 32° C. - 12% DBM, 3 days",3.35 LOG10 (CFU/g)
same,LOG10 (CFU/g),"[2]; 32° C. - 12% DBM, 4 days",3.30 LOG10 (CFU/g)
same,LOG10 (CFU/g),"[2]; 32° C. - 12% DBM, 5 days",3.23 LOG10 (CFU/g)
same,LOG10 (CFU/g),"[2]; 32° C. - 12% DBM, 6 days",3.11 LOG10 (CFU/g)
